# Assay results taken from patent US20200368247A1, “CENICRIVIROC FOR THE TREATMENT OF FIBROSIS” (Tobira Therapeutics, Inc., priority 2014, published 2020).
# Experiments:
# [1] = Study 202 treatment-emergent laboratory abnormalities (DAIDS grade); format: in vivo, human
# Text: The 12th subject (Subject 42001) had 2 consecutive CPK elevations (Grade 3 followed by Grade 4) that returned to normal values while continuing treatment at a subsequent visit. None of the CPK elevations were associated with clinical symptoms; no subjects discontinued due to CPK elevations and there were no differences in AEs related to musculoskeletal disorders between the CVC and EFV arms.
# The number of subjects with graded treatment-emergent laboratory abnormalities in selected liver parameters of interest is shown in Table 34. No Grade 4 ALT or AST elevations were observed. Except for one Grade 3 AST elevation, all ALT and AST elevations were Grade 1 or Grade 2. […] All abnormalities in bilirubin were Grade 1 or Grade 2. […]
# HIV-1 = experiment: Study 202 Phase 2b, virologic response (HIV-1 RNA <50 copies/mL, FDA Snapshot), with FTC/TDF; conditions: for subjects with virologic success (HIV-1 RNA <50 copies/mL): EFV
# Text: Subjects with a history of HIV-2, hepatitis B and/or C, cirrhosis of the liver or any known active or chronic active liver disease were excluded from the study.
# The primary efficacy endpoint was virologic response at Week 24, defined as HIV-1 RNA <50 copies/mL using the FDA Snapshot Algorithm.
# [2] = All CVC (N = 115), EFV (N = 28)
# [3] = All CVC (N = 115), EFV (N = 28), through Week 48
compound,measurement,setting,value
"O=C1Nc2ccc(Cl)cc2[C@@](C#CC2CC2)(C(F)(F)F)O1 [EFV, efavirenz, reference compound]","ALT abnormality, worst Grade 1",[1]; [2],2 (7%) n (%)
same,"ALT abnormality, worst Grade 2",[1]; [2],0 n (%)
same,"ALT abnormality, worst Grade 3",[1]; [2],0 n (%)
same,"ALT abnormality, worst Grade 4",[1]; [2],0 n (%)
same,"AST abnormality, worst Grade 1",[1]; [2],3 (11%) n (%)
same,"AST abnormality, worst Grade 2",[1]; [2],0 n (%)
same,"AST abnormality, worst Grade 3",[1]; [2],0 n (%)
same,"AST abnormality, worst Grade 4",[1]; [2],0 n (%)
same,"Alanine aminotransferase (ALT) abnormality, any worst grade",[1]; [2],2 (7%) n (%)
same,"Aspartate aminotransferase (AST) abnormality, any worst grade",[1]; [2],3 (11%) n (%)
same,"Bilirubin abnormality, any worst grade",[1]; [2],1 (4%) n (%)
same,"Bilirubin abnormality, worst Grade 1",[1]; [2],1 (4%) n (%)
same,"Bilirubin abnormality, worst Grade 2",[1]; [2],0 n (%)
same,"Bilirubin abnormality, worst Grade 3",[1]; [2],0 n (%)
same,"Bilirubin abnormality, worst Grade 4",[1]; [2],0 n (%)
same,"AST increased, Grade 3",[1]; [3],0 n (%)
same,"AST increased, Grade 4",[1]; [3],0 n (%)
same,Any Grade 3 laboratory abnormality,[1]; [3],3 (11%) n (%)
same,Any Grade 3 or Grade 4 laboratory abnormality,[1]; [3],4 (14%) n (%)
same,Any Grade 4 laboratory abnormality,[1]; [3],1 (4%) n (%)
same,Aspartate aminotransferase (AST) increased (Grade 3 or 4),[1]; [3],0 n (%)
same,"CPK increased, Grade 3",[1]; [3],2 (7%) n (%)
same,"CPK increased, Grade 4",[1]; [3],0 n (%)
same,Creatine phosphokinase (CPK) increased (Grade 3 or 4),[1]; [3],2 (7%) n (%)
same,Fibrinogen decreased (Grade 3 or 4),[1]; [3],0 n (%)
same,"Fibrinogen decreased, Grade 3",[1]; [3],0 n (%)
same,"Fibrinogen decreased, Grade 4",[1]; [3],0 n (%)
same,Hemoglobin decreased (Grade 3 or 4),[1]; [3],0 n (%)
same,"Hemoglobin decreased, Grade 3",[1]; [3],0 n (%)
same,"Hemoglobin decreased, Grade 4",[1]; [3],0 n (%)
same,Neutrophils decreased (Grade 3 or 4),[1]; [3],1 (4%) n (%)
same,"Neutrophils decreased, Grade 3",[1]; [3],0 n (%)
same,"Neutrophils decreased, Grade 4",[1]; [3],1 (4%) n (%)
same,Phosphate decreased (Grade 3 or 4),[1]; [3],1 (4%) n (%)
same,"Phosphate decreased, Grade 3",[1]; [3],1 (4%) n (%)
same,"Phosphate decreased, Grade 4",[1]; [3],0 n (%)
same,Prothrombin time/international normalized ratio increased (Grade 3 or 4),[1]; [3],0 n (%)
same,"Prothrombin time/international normalized ratio increased, Grade 3",[1]; [3],0 n (%)
same,"Prothrombin time/international normalized ratio increased, Grade 4",[1]; [3],0 n (%)
same,"Any graded (Grade 1-4) laboratory abnormality, %",[1]; EFV,89%
same,"Worst Grade 1 laboratory abnormality, %",[1]; EFV,46%
same,"Worst Grade 2 laboratory abnormality, %",[1]; EFV,29%
same,"Worst Grade 3 laboratory abnormality, %",[1]; EFV,11%
same,"Worst Grade 4 laboratory abnormality, %",[1]; EFV,4%
same,subjects who prematurely discontinued the study,HIV-1; EFV arm,39%
same,subjects with virologic success (HIV-1 RNA <50 copies/mL),HIV-1; Week 24,71%
same,subjects with virologic success (HIV-1 RNA <50 copies/mL),HIV-1; Week 48,50%
